Assay results: US20210269483A1, “PEPTIDE COMPOUNDS” (ULTUPHARMA AB, priority 2018, published 2021)
In brackets after ≈: the same amount, converted by molar mass. Like-named read-outs stand apart in the source and are kept apart here. Starred links: 1 amine or outer side, 2 acyl side, 3 side chain; linkers in the order of their positions; H or OH if unused. Positions of bridges follow the written chain, without caps; N, C: chain ends. Non-standard residues stand in square brackets, D forms with d. Residues, ends and D or L forms follow the SMILES beside them. X2 = CCCCCCC[C@H](CC(=O)[*:1])O[*:2]; Val(3-OH) = CC(C)(O)[C@H](N)C(=O)O; X1 = C/C=C(/N[*:1])C(=O)[*:2]; Dab = NCC[C@H](N)C(=O)O; Dap = NC[C@H](N)C(=O)O

Key:
P. aeruginosa [1] = assay type: cell-based, Pseudomonas aeruginosa; conditions: P. aeruginosa EN005, PAO750 (efflux-defective), method B
Description: (§1) 2015. M7-A10. Methods for dilution antimicrobial susceptibility tests for bacteria that grow aerobically, 10th ed. Approved standard. CLSI, Wayne, Pa.).

E. coli [2] = assay type: cell-based, Escherichia coli
Description: as §1
(§2) A) In the broth micro-dilution method, the test media were either AM3 Broth (BD Difco Ltd) mixed with phosphate buffered saline (PBS, Amresco LLC, Solon, USA) in 1:4 ratio (E. colt A. baumannii, Enterobacter cloacae, Klebsiella pneumonia and P. aeruginosa), AM3 Broth mixed with PBS in 1:1 ratio (S. aureus) or Malt Extract (ME; 15 g Malt Extract Dico Ltd. in 1000 mL deionized H2O; Aspergillus fumigatus). Prior to MIC-tests, the bacterial cell concentration/fungal spore concentration was adjusted to between 1 and 5×10^5 cells/spores per mL. […] Afterwards, suspensions of pathogen cells in the appropriate medium were dispensed to the wells of microtiter plates and the growth of pathogens were monitored after 16 to 20 h of incubation at 37° C. in the dark. Positive control comprised respective pathogen cells suspended in untreated sterile appropriate media without addition of compounds(s) and negative control comprised the medium only. The MIC was defined as the lowest concentration of each compound with no visible growth of pathogen. All MIC tests were performed in duplicate and/or triplicate and repeated at least twice.

A. baumannii [3] = assay type: cell-based, Acinetobacter baumannii
Description: as §1, §2

S. aureus [4] = assay type: cell-based, Staphylococcus aureus
Description: as §1

P. aeruginosa [5] = assay type: cell-based, Pseudomonas aeruginosa
Description: as §1, §2

A. baumannii [6] = assay type: cell-based, Acinetobacter baumannii; remark: listed apart in the source
Description: as §1

S. aureus [7] = assay type: cell-based, Staphylococcus aureus; remark: listed apart in the source
Description: as §1, §2

As. fumigatus = assay type: cell-based, Aspergillus fumigatus
Description: as §1, §2

HepG2 = system: HepG2
Description: (§3) IC50, haemolysis rate and frequency of resistance (FoR, Table 4) was determined using standard protocols by different CROs.

[8] = Description: as §3
E. cloacae = assay type: cell-based, Enterobacter cloacae
Description: as §1, §2

[9] = system: carbapenem resistant strains of E. coil, P. aeruginosa and A. baumannii; assay type: cell-based
Description: as §1

K. pneumoniae [10] = assay type: cell-based, Klebsiella pneumonia
Description: as §1, §2

K. pneumoniae [11] = assay type: cell-based, Klebsiella pneumonia; conditions: K. pneumoniae EN011, 1161486a (efflux-defective), method B
Description: as §1

E. coli [12] = assay type: cell-based, Escherichia coli; conditions: E. coli EN003, D22 (lps mutant, hypersensitive), method B
Description: as §1

## C/C=C1/NC(=O)[C@H](CCN)NC(=O)[C@H](CC(C)C)NC(=O)[C@H](CN)NC(=O)C[C@@H](CCCCCCC)OC(=O)[C@H](CC(=O)O)NC(=O)[C@H](C(C)(C)O)NC(=O)[C@@H](Cc2ccccc2)NC(=O)[C@H](CN)NC(=O)[C@H]([C@@H](C)O)NC1=O [U747, cyclo-((R)-3-hydroxydecanoyl-L-DAPA-L-Leu-L-DABA-(E)-ABA-L-Thr-L-DAPA-D-Phe-L-OHVal-L-Asp)] ([Dap]L[Dab][X1]T[Dap][dF][Val(3-OH)]D; linker N-C via X2)
P. aeruginosa [1]
  MIC: 32 µg/mL (≈ 28.6 µM)
E. coli [2]
  MIC: 2 to 4 µg/mL
  MIC E. coli LMG15862: 2 µg/mL (≈ 1.79 µM)
A. baumannii [3]
  MIC: 1 to 2 µg/mL
  MIC A. baumannii LMG1041T: 1 µg/mL (≈ 0.895 µM)
S. aureus [4]
  MIC: 64 µg/mL (≈ 57.3 µM)
P. aeruginosa [5]
  MIC: 8 to 16 µg/mL
  MIC P. aeruginosa LMG6395: 8 µg/mL (≈ 7.16 µM)
A. baumannii [6]
  MIC: 1 to 2 µg/mL
A. baumannii [6]; A. baumanii EN007, WT, method B
  MIC: 8 µg/mL (≈ 7.16 µM)
A. baumannii [6]; A. baumanii EN016, BM4454 8, method B
  MIC: 8 µg/mL (≈ 7.16 µM)
A. baumannii [6]; A. baumanii EN017, BM4652 (efflux-defective), method B
  MIC: 8 µg/mL (≈ 7.16 µM)
S. aureus [7]
  MIC: >32 µg/mL
  MIC S. aureus LMG15975: >32 µg/mL
As. fumigatus
  MIC: 16 to 32 µg/mL
HepG2
  IC50 (HepG2): 50 µg/mL (≈ 44.8 µM)
  toxicity (IC50) against human cell lines: low toxicity
[8]; 100 μM
  Haemolysis rate: 0.6%
[8]; in words
  haemolysis rates: acceptable
E. cloacae
  MIC: 2 to 4 µg/mL
  MIC E. cloacae LMG2783T: 2 µg/mL (≈ 1.79 µM)
[9]
  MICs against carbapenem resistant strains, highest: 2 to 4 µg/mL
  MICs against carbapenem resistant strains, lowest: 0.5 to 1 µg/mL
K. pneumoniae [10]
  MIC: 2 to 4 µg/mL
  MIC K. pneumonia LMG20218: 2 µg/mL (≈ 1.79 µM)
K. pneumoniae [11]
  MIC: 8 µg/mL (≈ 7.16 µM)
E. coli [12]
  MIC: 4 µg/mL (≈ 3.58 µM)
